The structures appear in SMILES notation.

In patent US8268881B2, “Carboxamide derivatives as muscarinic receptor antagonists” (Pfizer Limited, priority 2005, dated 2012) one finds Ki data, which are given here for 34 compounds.

The target in one assay is T1, human muscarinic M3 receptor (Homo sapiens, UniProt P20309).
T1 construct: expressed in transfected cells
T1 sequence (P20309 whole entry): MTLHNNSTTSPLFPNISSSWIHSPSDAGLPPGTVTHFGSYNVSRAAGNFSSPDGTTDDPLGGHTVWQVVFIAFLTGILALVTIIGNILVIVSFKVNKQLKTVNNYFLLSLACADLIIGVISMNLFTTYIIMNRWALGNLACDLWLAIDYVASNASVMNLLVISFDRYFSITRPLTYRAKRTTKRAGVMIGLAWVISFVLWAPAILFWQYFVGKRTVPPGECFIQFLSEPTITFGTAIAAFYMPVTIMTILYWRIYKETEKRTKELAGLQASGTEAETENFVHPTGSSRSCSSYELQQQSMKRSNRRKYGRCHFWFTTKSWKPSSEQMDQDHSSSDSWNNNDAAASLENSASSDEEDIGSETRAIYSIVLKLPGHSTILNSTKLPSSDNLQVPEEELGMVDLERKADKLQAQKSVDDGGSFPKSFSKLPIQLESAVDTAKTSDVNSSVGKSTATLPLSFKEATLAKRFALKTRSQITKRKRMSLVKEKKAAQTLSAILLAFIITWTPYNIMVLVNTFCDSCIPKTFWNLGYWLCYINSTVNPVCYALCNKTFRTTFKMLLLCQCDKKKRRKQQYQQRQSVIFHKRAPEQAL
Put plainly: hM3 β-Lac potency assay (cell based β-lactamase). Conditions: CHO cells expressing human M3 receptor, NFAT β-lactamase reporter; […]; IC50 converted to Ki by Cheng-Prusoff; read-out: Cell based β-lactamase M3 Ki. On the procedure:
M3 potency was determined in CHO-K1 cells transfected with the NFAT-Betalactamase gene. CHO (Chinese Hamster Ovary) cells recombinantly expressing the human muscarinic M3 receptor were transfected with the NFAT_β-Lac_Zeo plasmid.
The cells were re-suspended at 2×10^5 cells/ml in growth medium (composition as described above). […] Inhibition curves were plotted and IC50 values generated using a 4-parameter sigmoid fit and converted to Ki values using the Cheng-Prusoff correction and the KD value for carbamyl choline in the assay.
What is called Ki is the equilibrium dissociation constant of an inhibitor or competing ligand from its target. For `CC(C)(CCC(C#N)(c1ccccc1)c1ccccc1)N1CCC(OCc2cccc(O)c2)CC1` [Example 88, 5-{4-[(3-Hydroxybenzyl)oxy]piperidin-1-yl}-5-methyl-2,2-diphenylhexanenitrile], the inhibitory constant (Ki) worked out at 71.9 nM.

Still in this assay, the particulars now being: CHO cells expressing human M3 receptor, NFAT β-lactamase reporter; inhibition of 80 nM carbamyl choline signal, 4 h; IC50 converted to Ki by Cheng-Prusoff; read-out: Cell based β-lactamase M3 Ki.
Turning to `CC(C)(CCC(C(N)=O)(c1ccccc1)c1ccccc1)N1CC[C@@H](Oc2cccc(Cl)c2O)C1` [Example 43, 5-[(3R)-3-(3-Chloro-2-Hydroxy-phenoxy)-pyrrolidin-1-yl]-5-methyl-2,2-diphenyl-hexanoic acid amide], the Ki is 5.35 nM.

Consider `CC(C)(CCC(C#N)(c1ccccc1)c1ccccc1)N1CCC(Oc2ccccc2)CC1` [Example 86, 5-Methyl-5-(4-phenoxypiperidin-1-yl)-2,2-diphenylhexanenitrile], for which the Ki amounted to 1.26 nM.

Regarding `CC(C)(CCC(C(N)=O)(c1ccccc1)c1ccccc1)N1CC[C@H](OCc2ccccc2)C1` [Example 11, 5-[(3S)-3-(Benzyloxy)pyrrolidin-1-yl]-5-methyl-2,2-diphenylhexanamide], the inhibition constant Ki amounted to 3.27 nM.

As to `CC(C)(CCC(C(N)=O)(c1ccccc1)c1ccccc1)N1CC[C@H](Oc2cc(O)cc(F)c2)C1` [Example 46, 5-[(3S)-3-(3-Fluoro-5-Hydroxy-phenoxy)-pyrrolidin-1-yl]-5-methyl-2,2-diphenyl-hexanoic acid amide], the Ki came to 1.74 nM.

Regarding `CC(C)(CCC(C(N)=O)(c1ccccc1)c1ccccc1)N1CC[C@@H](Oc2cc(O)cc(F)c2)C1` [Example 74, 5-[(3R)-3-(3-Fluoro-5-hydroxy-phenoxy)-pyrrolidin-1-yl]-5-methyl-2,2-diphenyl-hexanamide], the Ki is less than 0.56 nM.

`CC(C)(CCC(C(N)=O)(c1ccccc1)c1ccccc1)N1CC[C@@H](Oc2ccc(O)c(Cl)c2)C1` [Example 72, 5-[(3R)-3-(3-chloro-4-hydroxyphenoxy)pyrrolidin-1-yl]-5-methyl-2,2-diphenylhexanamide]: the Ki came out at 1.23 nM.

For the compound `CC(C)(CCC(C(N)=O)(c1ccccc1)c1ccccc1)N1CC[C@H](Oc2cccc(O)c2F)C1` [Example 53, 5-[(3S)-3-(2-Fluoro-3-Hydroxy-phenoxy)-pyrrolidin-1-yl]-5-methyl-2,2-diphenyl-hexanoic acid amide], the Ki came out at 0.334 nM.

As to `CC(C)(CCC(C(N)=O)(c1ccccc1)c1ccccc1)N1CC[C@H](Oc2cc(O)cc(Cl)c2)C1` [Example 34, 5-[(3S)-3-(3-Chloro-5-hydroxy-phenoxy)-pyrrolidin-1-yl]-5-methyl-2,2-diphenyl-hexanoic acid amide], the Ki stood at 6.57 nM.

As for `CC(C)(CCC(C(N)=O)(c1ccccc1)c1ccccc1)N1CC[C@H](Oc2ccc3ccc(O)cc3c2)C1` [Example 70, 5-[(3S)-3-[(7-Hydroxy-2-naphthyl)oxy]pyrrolidin-1-yl]-5-methyl-2,2-diphenylhexanamide], the Ki was determined as 19.1 nM.

In the case of `Cc1c(O)cccc1OC1CCN(C(C)(C)CCC(C(N)=O)(c2ccccc2)c2ccccc2)CC1` [Example 96, 5-[4-(3-hydroxy-2-methylphenoxy)piperidin-1-yl]-5-methyl-2,2-diphenylhexanamide], the Ki worked out at 6.51 nM.

On to `CC(C)(CCC(C(N)=O)(c1ccccc1)c1ccccc1)N1CC(Oc2ccc(F)cc2O)C1` [Example 127], for which the Ki came out at 110 nM.

Take `CC(C)(CCC(C(N)=O)(c1ccccc1)c1ccccc1)N1CC[C@H](Oc2cc(Cl)c(Cl)cc2O)C1` [Example 32, 5-[(3S)-3-(4,5-Dichloro-2-Hydroxy-phenoxy)-pyrrolidin-1-yl]-5-methyl-2,2-diphenyl-hexanoic acid amide]: the Ki worked out at 36.4 nM.

On to `COc1cc(O[C@H]2CCN(C(C)(C)CCC(C(N)=O)(c3ccccc3)c3ccccc3)C2)ccc1F` [Example 50, 5-[(3S)-3-(4-Fluoro-3-Methoxy-phenoxy)-pyrrolidin-1-yl]-5-methyl-2,2-diphenyl-hexanoic acid amide], for which the Ki came to 3.18 nM.

For `COc1ccc(O[C@@H]2CCN(C(C)(C)CCC(C(N)=O)(c3ccccc3)c3ccccc3)C2)cc1Cl` [Example 28, 5-[(3R)-3-(3-chloro-4-methoxy-phenoxy)pyrrolidin-1-yl]-5-methyl-2,2-diphenylhexanamide], the Ki was determined as 47.4 nM.

Consider `CC(C)(CCC(C(N)=O)(c1ccccc1)c1ccccc1)N1CC(Oc2cc(O)cc(O)c2)C1` [Example 149, 5-[3-(3,5-Dihydroxy-phenoxy)-azetidin-1-yl]-5-methyl-2,2-diphenyl-hexanoic acid amide], for which the inhibitory constant (Ki) was 0.714 nM.

For `CC(C)(CCC(C(N)=O)(c1ccccc1)c1ccccc1)N1CC[C@@H](OCc2ccccc2)C1` [Example 9, 5-[(3R)-3-(Benzyloxy)pyrrolidin-1-yl]-5-methyl-2,2-diphenylhexanamide], the Ki is 1.87 nM.

Consider `Cc1cc(O)c(C)c(O[C@H]2CCN(C(C)(C)CCC(C(N)=O)(c3ccccc3)c3ccccc3)C2)c1` [Example 44, 5-[(3S)-3-(3-Hydroxy-2,5-dimethyl-phenoxy)-pyrrolidin-1-yl]-5-methyl-2,2-diphenyl-hexanoic acid amide], for which the Ki was 32.2 nM.

For the compound `COc1cccc(CO[C@H]2CCN(C(C)(C)CCC(C(N)=O)(c3ccccc3)c3ccccc3)C2)c1` [Example 84, 5-[(3S)-3-(3-methoxy-benzyloxy)pyrrolidin-1-yl]-5-methyl-2,2-diphenylhexanamide], the Ki worked out at 6.97 nM.

As to `CC(C)(CCC(C(N)=O)(c1ccccc1)c1ccccc1)N1CC[C@H](Oc2cccc(O)c2Cl)C1` [Example 38, 5-[(3S)-3-(2-Chloro-3-Hydroxy-phenoxy)-pyrrolidin-1-yl]-5-methyl-2,2-diphenyl-hexanoic acid amide], the inhibitory constant (Ki) amounted to 0.996 nM.

For `COc1cccc(O[C@H]2CCN(C(C)(C)CCC(C(N)=O)(c3ccccc3)c3ccccc3)C2)c1F` [Example 51, 5-[(3S)-3-(2-Fluoro-3-Methoxy-phenoxy)-pyrrolidin-1-yl]-5-methyl-2,2-diphenyl-hexanoic acid amide], the Ki was found to be 0.623 nM.

Regarding `COc1cccc(O[C@@H]2CCN(C(C)(C)CCC(C(N)=O)(c3ccccc3)c3ccccc3)C2)c1Cl` [Example 77, 5-[(3R)-3-(2-Chloro-3-methoxy-phenoxy)-pyrrolidin-1-yl]-5-methyl-2,2-diphenylhexanamide], the Ki came to 4.96 nM.

Consider `CC(C)(CCC(C(N)=O)(c1ccccc1)c1ccccc1)N1CC(Oc2cc(Cl)c(Cl)cc2O)C1` [Example 111, 5-{3-(4,5-Dichloro-2-hydroxy-phenoxy)-azetidin-1-yl}-5-methyl-2,2-diphenylhexanamide], for which the inhibition constant Ki stood at 76.9 nM.

On to `CC(C)(CCC(C(N)=O)(c1ccccc1)c1ccccc1)N1CC(Oc2ccc(O)cc2)C1` [Example 107, 5-[3-(4-hydroxyphenoxy)azetidin-1-yl]-5-methyl-2,2-diphenylhexanamide], for which the Ki was 0.132 nM.

Take `Cc1cc(O)cc(O[C@H]2CCN(C(C)(C)CCC(C(N)=O)(c3ccccc3)c3ccccc3)C2)c1` [Example 29, 5-[(3S)-3-(3-Hydroxy-5-methyl-phenoxy)-pyrrolidin-1-yl]-5-methyl-2,2-diphenyl-hexanoic acid amide]: the Ki is 2.26 nM.

For `CC(C)(CCC(C(N)=O)(c1ccccc1)c1ccccc1)N1CC(Oc2cc(O)cc(Cl)c2)C1` [Example 124, 5-[3-(3-Chloro-5-hydroxy-phenoxy)-azetidin-1-yl]-5-methyl-2,2-diphenylhexanamide], the Ki was 0.223 nM.

As for `Cc1c(O)cccc1O[C@H]1CCN(C(C)(C)CCC(C(N)=O)(c2ccccc2)c2ccccc2)C1` [Example 30, 5-[(3S)-3-(3-Hydroxy-2-methyl-phenoxy)-pyrrolidin-1-yl]-5-methyl-2,2-diphenyl-hexanoic acid amide], the Ki turned out to be 0.333 nM.

Regarding `CC(C)(CCC(C(N)=O)(c1ccccc1)c1ccccc1)N1CC[C@@H](Oc2cccc(O)c2Cl)C1` [Example 78, 5-[(3R)-3-(2-Chloro-3-hydroxy-phenoxy)-pyrrolidin-1-yl]-5-methyl-2,2-diphenylhexanamide], the Ki was 0.917 nM.

For the compound `CC(C)(CCC(C(N)=O)(c1ccccc1)c1ccccc1)N1CC(OCc2ccc(Cl)cc2O)C1` [Example 147, 5-[3-(4-Chloro-2-hydroxy-benzyloxy)-azetidin-1-yl]-5-methyl-2,2-diphenyl-hexanoic acid amide], the inhibition constant (Ki) was 33.4 nM.

Take `CC(C)(CCC(C(N)=O)(c1ccccc1)c1ccccc1)N1CC[C@@H](Oc2ccccc2)C1` [Example 4, 5-Methyl-5-[(3R)-3-phenoxypyrrolidin-1-yl]-2,2-diphenylhexanamide]: the Ki is 1.55 nM.

As for `CC(C)(CCC(C(N)=O)(c1ccccc1)c1ccccc1)N1CC(OCc2cccc(O)c2)C1` [Example 115, 5-[3-(3-Hydroxy-benzyloxy)-azetidin-1-yl]-5-methyl-2,2-diphenyl-hexanoic acid amide], the Ki worked out at 0.176 nM.

For the compound `CC(C)(CCC(C(N)=O)(c1ccccc1)c1ccccc1)N1CC[C@H](Oc2ccc(Cl)c(O)c2)C1` [Example 39, 5-[(3S)-3-(4-Chloro-3-Hydroxy-phenoxy)-pyrrolidin-1-yl]-5-methyl-2,2-diphenylhexanoic acid amide], the Ki stood at 1.97 nM.

Turning to `CC(C)(CCC(C#N)(c1ccccc1)c1ccccc1)N1CC[C@H](OCc2cccc(-c3ccc(O)cc3)c2)C1` [Example 62, 5-[(3S)-3-[(4′-Hydroxybiphenyl-3-yl)methoxy]-pyrrolidin-1-yl]5-methyl-2,2-diphenylhexanenitrile], the Ki stood at 57.4 nM.

As to `CC(C)(CCC(C(N)=O)(c1ccccc1)c1ccccc1)N1CC[C@@H](OCc2cccc(O)c2Cl)C1` [Example 85, 5-[(3R)-3-(2-Chloro-3-hydroxy-benzyloxy)-pyrrolidin-1-yl]-5-methyl-2,2-diphenylhexanamide], the Ki amounted to 3.19 nM.
